Source: US8487108B2, “Piperidinyl carbamate intermediates for the synthesis of aspartic protease inhibitors” (Vitae Pharmaceuticals, Inc., priority 2005, dated 2013)

Key:
[1] = biological target: T1, trypsin-activated recombinant human renin (Homo sapiens, UniProt P00797); test: Renin fluorescence assay (internally quenched peptide substrate); format: biochemical
T1 sequence (P00797 67-406): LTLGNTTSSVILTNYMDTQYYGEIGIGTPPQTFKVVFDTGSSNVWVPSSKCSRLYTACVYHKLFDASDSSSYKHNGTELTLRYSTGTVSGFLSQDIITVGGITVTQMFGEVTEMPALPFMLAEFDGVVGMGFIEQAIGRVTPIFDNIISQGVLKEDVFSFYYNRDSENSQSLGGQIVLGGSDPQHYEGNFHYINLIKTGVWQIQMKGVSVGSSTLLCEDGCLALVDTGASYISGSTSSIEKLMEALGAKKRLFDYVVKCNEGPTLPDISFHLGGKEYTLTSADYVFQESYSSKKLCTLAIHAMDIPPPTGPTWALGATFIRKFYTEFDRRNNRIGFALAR
Summary of the method: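 Cleavage of an angiotensinogen-derived DABCYL-quenched peptide by trypsin-activated recombinant human renin (0.2-2 nM final) in 50 mM BES, 150 mM NaCl, 0.25 mg/mL BSA, pH 7.0; compounds 10 μM to 1 nM final. Fluorescence (ex 340/em 495 nm) followed 60-360 min at rt; linear-slope rates give percent inhibition versus uninhibited control.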

[2] = biological target: T2, plasma renin activity (PRA) in pooled mixed-gender human plasma (Homo sapiens, UniProt P00797); test: Plasma renin activity (PRA) assay in human plasma; format: biochemical
T2 construct: pooled mixed-gender human plasma stabilized with EDTA; from tissue; host or cells: pooled mixed-gender human plasma (EDTA)
T2 sequence (P00797 67-406): T1 sequence (P00797 67-406)
Description: Incubations mixtures contain in the final volume of 250 μL 95.5 mM N,N-bis(2-hydroxyethyl)-2-aminoethanesulfonic acid, pH 7.0, 8 mM EDTA, 0.1 mM neomycin sulfate, 1 mg/mL sodium azide, 1 mM phenylmethanesulfonyl fluoride, 2% DMSO and 87.3% of pooled mixed-gender human plasma stabilized with EDTA. For plasma batches with low PRA (less than 1 ng/ml/hr) ˜2 pM of recombinant human renin is added to achieve PRA of 3-4 ng/ml/hr. The cleavage of endogenous angiotensinogen in plasma is carried out at 37° C. for 90 min and the product angiotensin I is measured by competitive radioimmunoassay using DiaSorin PRA kit.

[3] = system: double transgenic rats engineered to express human renin and human angiotensinogen; test: Blood pressure by telemetry in double transgenic rats; format: in vivo, rat; conditions: dosage of 10 mg/kg, oral
Description: Double Transgenic Rats: The efficacy of the renin inhibitors can also evaluated in vivo in double transgenic rats engineered to express human renin and human angiotensinogen (Bohlender J, Fukamizu A, Lippoldt A, Nomura T, Dietz R, Menard J, Murakami K, Luft F C, Ganten D. High human renin hypertension in transgenic rats. Hypertension 1997, 29, 428-434).
(§1) Experiments were conducted in 6-week-old double transgenic rats (dTGRs). The model has been described in detail earlier. […] The human angiotensinogen construct made up the entire human angiotensinogen gene (5 exons and 4 introns), with 1.3 kB of 5′-flanking and 2.4 kB of 3′-flanking sequences. The rats were purchased from RCC Ltd (Füllinsdorf, Switzerland). Radio telemetry transmitters were surgically implanted at 4 weeks of age. The telemetry system provided 24-h recordings of systolic, mean, diastolic arterial pressure (SAP, MAP, DAP, respectively) and heart rate (HR). Beginning on day 42, animals were transferred to telemetry cages. A 24 h telemetry reading was obtained. Rats were then dosed orally on the following 4 consecutive days (days 43-46). The rats were monitored continuously and allowed free access to standard 0.3%-sodium rat chow and drinking water.

[4] = Plasma concentration in double transgenic rats after oral administration; format: in vivo, rat; conditions: 10 mg/kg oral
Description: FIG. 2 is a plot showing mean plasma concentrations of compound L-6a in transgenic rats over time following oral administration of 10 mg/kg of compound L-6a.
as §1

IC50 ([1]; compounds of Formula (XL)) [nM]	IC50 ([2]; compounds of Formula (XL)) [nM]	SMILES	other results
–	–	CNC[C@@H](CC1CCCOC1)NC(=O)N1CCC[C@@H]([C@@H](OCCNC(=O)OC)c2cc(F)cc(Cl)c2)C1 (single isomer, unassigned) [Example L-3c]	IC50 ([1]; compounds of Formula (L)): < 10 nM; IC50 ([2]; compounds of Formula (L)): < 10 nM
–	–	CNC[C@@H](CC1CCCOC1)NC(=O)N1CCC[C@@H]([C@@H](OCCNC(=O)OC)c2cc(F)cc(Cl)c2)C1 (single isomer, unassigned) [Example L-3d]	IC50 ([1]; compounds of Formula (L)): < 20 nM; IC50 ([2]; compounds of Formula (L)): < 20 nM
–	–	CNC[C@H](C[C@H]1CCCOC1)NC(=O)N1CCC[C@@H]([C@@H](OCCNC(=O)OC)c2cccc(Cl)c2)C1 [Example L-6a, methyl 2-((R)-(3-chlorophenyl)((R)-1-((S)-1-(methylamino)-3-((R)-tetrahydro-2H-pyran-3-yl)propan-2-ylcarbamoyl)-piperidin-3-yl)methoxy)-ethylcarbamate]	effect in lowering blood pressures of double transgenic rats [3]: significant effect in lowering blood pressures; availability in rat's plasma following oral administration [4]: readily available in rat's plasma; metabolic stability [4]: excellent; oral bioavailability [4]: excellent; plasma concentration over 24 h period ([4]; over 24 h): remains relatively high
–	–	CNC[C@H](C[C@H]1CCC2(CC2)OC1)NC(=O)N1CCC[C@@H]([C@@H](OCCNC(=O)OC)c2cccc(F)c2)C1 [I*-159a, methyl 2-((R)-(3-fluorophenyl)((R)-1-((S)-1-((R)-4-oxaspiro[2.5]octan-6-yl)-3-(methylamino)propan-2-ylcarbamoyl)piperidin-3-yl)methoxy)ethylcarbamate]	IC50 ([1]; compounds I*): < 10 nM
–	–	CNC[C@H](C[C@H]1CCC2(CC2)OC1)NC(=O)N1CCC[C@@H]([C@@H](OCCNC(=O)OC)c2cc(F)cc(F)c2)C1 [I*-160a, methyl 2-((R)-(3,5-difluorophenyl)((R)-1-((S)-1-((R)-4-oxaspiro[2.5]octan-6-yl)-3-(methylamino)propan-2-ylcarbamoyl)piperidin-3-yl)methoxy)ethylcarbamate]	IC50 ([1]; compounds I*): < 1 nM
< 10	< 10	COC(=O)NCCO[C@@H](c1cccc(Cl)c1)[C@@H]1CCCN(C(=O)NC[C@@H](N)C[C@H]2CCCOC2)C1 [XL-1, methyl 2-((R)-((R)-1-((S)-2-amino-3-((R)-tetrahydro-2H-pyran-3-yl)propylcarbamoyl)piperidin-3-yl)(3-chlorophenyl)methoxy)ethylcarbamate]	–
< 10	< 20	COC(=O)NCCO[C@@H](c1cccc(F)c1)[C@@H]1CCCN(C(=O)NC[C@@H](N)C[C@H]2CCCOC2)C1 [XL-2, methyl 2-((R)-((R)-1-((S)-2-amino-3-((R)-tetrahydro-2H-pyran-3-yl)propylcarbamoyl)piperidin-3-yl)(3-fluorophenyl)methoxy)ethylcarbamate]	–
< 10	< 10	COC(=O)NCCO[C@@H](c1cc(F)cc(Cl)c1)[C@@H]1CCCN(C(=O)NC[C@@H](N)C[C@H]2CCCOC2)C1 [XL-3, methyl 2-((R)-((R)-1-((S)-2-amino-3-((R)-tetrahydro-2H-pyran-3-yl)propylcarbamoyl)piperidin-3-yl)(3-chloro-5-fluorophenyl)methoxy)ethylcarbamate]	–
< 10	< 10	COC(=O)NCCO[C@@H](c1cc(F)cc(F)c1)[C@@H]1CCCN(C(=O)NC[C@@H](N)C[C@H]2CCCOC2)C1 [XL-4, methyl 2-((R)-((R)-1-((S)-2-amino-3-((R)-tetrahydro-2H-pyran-3-yl)propylcarbamoyl)piperidin-3-yl)(3,5-difluorophenyl)methoxy)ethylcarbamate]	–
< 1	< 1	COC(=O)NCCO[C@@H](c1cc(Cl)ccc1C)[C@@H]1CCCN(C(=O)NC[C@@H](N)C[C@H]2CCCOC2)C1 [XL-5, methyl 2-((R)-((R)-1-((S)-2-amino-3-((R)-tetrahydro-2H-pyran-3-yl)propylcarbamoyl)piperidin-3-yl)(5-chloro-2-methylphenyl)methoxy)ethylcarbamate]	–
< 10	< 50	COC(=O)NCCO[C@@H](c1cc(F)ccc1C)[C@@H]1CCCN(C(=O)NC[C@@H](N)C[C@H]2CCCOC2)C1 [XL-6, methyl 2-((R)-((R)-1-((S)-2-amino-3-((R)-tetrahydro-2H-pyran-3-yl)propylcarbamoyl)piperidin-3-yl)(5-fluoro-2-methylphenyl)methoxy)ethylcarbamate]	–
< 1	< 10	CN[C@H](CNC(=O)N1CCC[C@@H]([C@@H](OCCNC(=O)OC)c2cccc(Cl)c2)C1)C[C@H]1CCCOC1 [XL-7, methyl 2-((R)-(3-chlorophenyl)((R)-1-((S)-2-(methylamino)-3-((R)-tetrahydro-2H-pyran-3-yl)propylcarbamoyl)piperidin-3-yl)methoxy)ethylcarbamate]	effect in lowering blood pressures of double transgenic rats [3]: significant effect in lowering blood pressures
< 1	< 10	CN[C@H](CNC(=O)N1CCC[C@@H]([C@@H](OCCNC(=O)OC)c2cc(Cl)ccc2C)C1)C[C@H]1CCCOC1 [XL-8, methyl 2-((R)-(5-chloro-2-methylphenyl)((R)-1-((S)-2-(methylamino)-3-((R)-tetrahydro-2H-pyran-3-yl)propylcarbamoyl)piperidin-3-yl)methoxy)ethylcarbamate]	–
